The values that follow come from patent publication US20140287460A1, “PRODUCTION OF R[…] IN INSECT CELLS USING A B[…]” (GBIOTECH SARL, priority 2011, published 2014).

In assay [1] the test system is bMON14272-pFastbac Dual infected SF21 cells. The assay is described as follows: Baculovirus virion suppression test, end point dilution assay, negative control virus (Example 2). In kind it is cell-based. The settings on record: addition of 0.5 μM RG-102240, SF21 cells, 72 hours, FIG. 7B right. An excerpt: FIG. 7: Example 2. A) Generation of composite baculovirus DNA containing expression cassettes X, Y, and Z as described in FIG. 6. Baculovirus DNA bMON14272 (left) contains expression cassette Z encoding native vp80 protein. The transfer vector pE2 (right) contains expression cassettes X and Y encoding the ecdysone activator protein and shRNA, respectively. In transfer vector pE2, direction of transcription 5′ to 3′ for expression cassettes X and Y is indicated by arrows. Promoter sequences pe38 for ecdysone activator and ie-2 minimal for shRNA are indicated as are the DNA binding sites for ecdysone activator protein. Fusion of the transfer vector pE2 and bMON14272 is carried out by Tn7 transposition (indicated by the dashed cross). B) Comparison of budded infectious virus production from inducible bMON14272-pE2 (left) and non-inducible bMON14272-pDual (right) in the presence and absence of inducer molecule RG-102240. Baculovirus infected SF21 cells are incubated for 72 hours in the presence, or absence of 0.5 μM RG-102240 (indicated by + or −, bottom). […]
(§1) Quantification of effectiveness of RG-102240-mediated suppression of generation of baculovirus virion through shRNA targeting of the essential virus capsid protein vp80 as described above is carried out by comparing the results of the end point dilution assay with and without RG-102240-mediated expression of shRNA. […]

Assay [2] deals with bMON14272-pE2 infected SF21 cells. The assay is described as follows: Baculovirus virion suppression test, end point dilution assay (Example 2). It counts as cell-based.
Source text: FIG. 7: Example 2. A) Generation of composite baculovirus DNA containing expression cassettes X, Y, and Z as described in FIG. 6. Baculovirus DNA bMON14272 (left) contains expression cassette Z encoding native vp80 protein. The transfer vector pE2 (right) contains expression cassettes X and Y encoding the ecdysone activator protein and shRNA, respectively. In transfer vector pE2, direction of transcription 5′ to 3′ for expression cassettes X and Y is indicated by arrows. Promoter sequences pe38 for ecdysone activator and ie-2 minimal for shRNA are indicated as are the DNA binding sites for ecdysone activator protein. Fusion of the transfer vector pE2 and bMON14272 is carried out by Tn7 transposition (indicated by the dashed cross). B) Comparison of budded infectious virus production from inducible bMON14272-pE2 (left) and non-inducible bMON14272-pDual (right) in the presence and absence of inducer molecule RG-102240. Baculovirus infected SF21 cells are incubated for 72 hours in the presence, or absence of 0.5 μM RG-102240 (indicated by + or −, bottom). […] S.E.M of three measurements is indicated by dark bars on the top of the graphs.
Other algorithms may be analogously used. […] Expression cassette Y is under control of the ie2 minimal promoter (Protein Expression and Purification 42, 236-245).
Baculovirus virion suppression tests are carried out as follows. 10 milliliters of SF21 cells in suspension culture (Nature Methods 3, 1021-1032) at density 0.5×10^6 cells/ml are infected at multiplicity of infection (M.O.I) of 1.0 with either bMON14272-pE2 or bMON14272-pFastbac Dual initial transfection virus either in the presence, or absence of 0.5 μM RG-102240 (FIG. 7B). […]
as §1

Setting [3] is: induced with 0.5 μM RG-102240, SF21 cells, 72 hours.

Take `CCc1c(OC)cccc1C(=O)NN(C(=O)c1cc(C)cc(C)c1)C(C)(C)C` [RG-102240]: the “effect on baculovirus virion production” value in assay [1] is recorded as “no statistically significant effect”. For the same molecule, in assay [2] (setting [3]), the “reduction of virus titers relative to prior art systems (bMON14272-pFastbac Dual)” value is given as “more than three fold” and the “reduction of virus titers relative to uninduced bMON14272-pE2” value was “more than three fold”. The “levels of budded virus production (infectious virus titre)” value in assay [2] (presence vs absence of 0.5 μM RG-102240, SF21 cells, M.O.I 1.0, 72 hours, FIG. 7B left) is given as “significantly reduced”.
